Paper PMC10746543, “Design principles for cyclin K molecular glue degraders” (Nature Chemical Biology, 2023)
Several values for one entry are separate records, joined by “and”; a condition that tells them apart may be missing. Equal values may be shown once. Read-outs that look alike come from different tables or passages of the source.

Assays:
[1] = target: T1, CDK12–cyclin K and DDB1 (Homo sapiens, UniProt Q16531+Q9NYV4, K965R); test: TR-FRET ternary complex formation assay (compound titration); type: binding; details: for TR-FRET signal at compound concentration 0.468 nM / TR-FRET signal at compound concentration 2.16 nM / TR-FRET signal at compound concentration 3.6 nM / TR-FRET signal at compound concentration 7.92001 nM / TR-FRET signal at compound concentration 15.84 nM / TR-FRET signal at compound concentration 30.96 nM / TR-FRET signal at compound concentration 62.6401 nM / TR-FRET signal at compound concentration 125.28 nM / TR-FRET signal at compound concentration 244.8 nM / TR-FRET signal at compound concentration 993.601 nM / TR-FRET signal at compound concentration 2001.6 nM: raw titration data
T1 construct: His6–CDK12 (a.a. 713–1,052); full-length or beta-propeller B domain deletion (ΔBPB: a.a. 396–705 deleted) constructs of His6–DDB1ΔBPB, StrepII–Avi–DDB1, or His6–Spy–DDB1; made in house; host or cells: Trichoplusia ni High Five insect cells (baculovirus)
T1 sequence (Q9NYV4 713-1052 K965R): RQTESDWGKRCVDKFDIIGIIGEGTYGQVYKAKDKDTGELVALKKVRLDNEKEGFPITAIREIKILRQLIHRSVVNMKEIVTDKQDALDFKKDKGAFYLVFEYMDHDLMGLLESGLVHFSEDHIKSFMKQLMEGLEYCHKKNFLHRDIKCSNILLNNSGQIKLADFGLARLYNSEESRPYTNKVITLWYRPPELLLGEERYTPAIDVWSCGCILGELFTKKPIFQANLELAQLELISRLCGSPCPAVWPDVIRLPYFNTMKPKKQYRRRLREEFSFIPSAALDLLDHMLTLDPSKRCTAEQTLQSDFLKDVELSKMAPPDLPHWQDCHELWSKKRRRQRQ
T1 sequence (O75909 1-267 partner): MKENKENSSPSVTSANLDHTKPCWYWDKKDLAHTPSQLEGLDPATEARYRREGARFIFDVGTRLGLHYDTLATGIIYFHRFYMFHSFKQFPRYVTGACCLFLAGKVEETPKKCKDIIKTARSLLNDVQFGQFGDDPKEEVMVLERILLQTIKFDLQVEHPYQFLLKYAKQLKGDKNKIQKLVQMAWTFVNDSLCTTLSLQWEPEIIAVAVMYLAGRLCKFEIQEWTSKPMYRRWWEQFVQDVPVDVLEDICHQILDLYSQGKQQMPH
T1 sequence (Q16531 whole entry): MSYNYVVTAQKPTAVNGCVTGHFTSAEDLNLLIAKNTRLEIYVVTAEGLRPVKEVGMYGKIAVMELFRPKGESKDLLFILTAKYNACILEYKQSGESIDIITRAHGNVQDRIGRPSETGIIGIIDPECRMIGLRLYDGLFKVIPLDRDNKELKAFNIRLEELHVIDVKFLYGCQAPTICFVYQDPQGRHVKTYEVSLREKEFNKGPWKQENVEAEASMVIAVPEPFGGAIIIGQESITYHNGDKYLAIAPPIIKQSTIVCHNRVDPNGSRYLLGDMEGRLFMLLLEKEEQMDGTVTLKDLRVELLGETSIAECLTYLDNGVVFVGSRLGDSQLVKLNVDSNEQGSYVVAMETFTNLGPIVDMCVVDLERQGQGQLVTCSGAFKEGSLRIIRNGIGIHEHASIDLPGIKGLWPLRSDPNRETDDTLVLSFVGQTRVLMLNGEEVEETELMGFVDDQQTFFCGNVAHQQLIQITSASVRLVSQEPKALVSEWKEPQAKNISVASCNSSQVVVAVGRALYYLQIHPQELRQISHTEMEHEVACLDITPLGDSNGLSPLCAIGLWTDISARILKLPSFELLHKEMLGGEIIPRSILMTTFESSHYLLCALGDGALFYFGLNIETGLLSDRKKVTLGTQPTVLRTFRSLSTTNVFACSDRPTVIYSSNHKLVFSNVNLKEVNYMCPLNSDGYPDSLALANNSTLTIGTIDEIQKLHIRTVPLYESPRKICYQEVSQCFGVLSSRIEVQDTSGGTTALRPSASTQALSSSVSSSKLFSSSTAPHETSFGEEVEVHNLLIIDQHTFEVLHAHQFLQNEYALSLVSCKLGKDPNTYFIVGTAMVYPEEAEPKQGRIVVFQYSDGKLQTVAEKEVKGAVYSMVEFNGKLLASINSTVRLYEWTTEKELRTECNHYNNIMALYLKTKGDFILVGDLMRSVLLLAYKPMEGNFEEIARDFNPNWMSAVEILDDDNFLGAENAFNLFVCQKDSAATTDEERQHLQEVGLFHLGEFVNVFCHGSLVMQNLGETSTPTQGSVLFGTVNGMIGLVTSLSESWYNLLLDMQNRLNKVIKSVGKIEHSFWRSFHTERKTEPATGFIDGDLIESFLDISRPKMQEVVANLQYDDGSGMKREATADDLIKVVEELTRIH
How it was run: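 Delayed (70 μs) time-resolved read; FRET computed as 520 nm over 490 nm emission.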

[2] = system: cyclin K–eGFP degradation reporter; test: Cyclin K reporter stability analysis (dual-color cyclin K–eGFP reporter); type: cell-based, human; details: source data sheet correlations; read-out: DC50
How it was run: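 A 5 h treatment of HEK293T–Cas9 cells expressing the degradation reporter preceded flow cytometry; eGFP over mCherry, normalized to DMSO.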

[3] = system: HEK293T cells; test: Drug sensitivity assay (CellTiter-Glo viability) with or without MLN4924 pretreatment; type: cell-based, human; details: Supplementary Table 2; for EC50: Homo sapiens, HEK-293T, HEK293T viability, 72 h, compound alone, read-out: Cellular assays EC50; for Toxicity rescue: MLN4924-mediated cytotoxicity rescue, 10 µM used where n.d.
How it was run: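 Viability of HEK293T–Cas9 cells was compared after 3-day drug treatment with or without 100 nM MLN4924 pretreatment (2 h, versus DMSO). Values are CellTiter-Glo signals relative to DMSO controls.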

[4] = in vitro complex formation, 50 nM CDK12–cyclin K, 100 nM DDB1, text and figures, read-out: TR-FRET EC50
[5] = sheet MOESM7, read-out: log TR-FRET EC50 (converted)
[6] = source data sheet correlations, read-out: TR-FRET EC50

| TR-FRET signal at compound concentration 0.468 nM [1] | TR-FRET signal at compound concentration 2.16 nM [1] | TR-FRET signal at compound concentration 3.6 nM [1] | TR-FRET signal at compound concentration 7.92001 nM [1] | TR-FRET signal at compound concentration 15.84 nM [1] | TR-FRET signal at compound concentration 30.96 nM [1] | TR-FRET signal at compound concentration 62.6401 nM [1] | TR-FRET signal at compound concentration 125.28 nM [1] | TR-FRET signal at compound concentration 244.8 nM [1] | TR-FRET signal at compound concentration 993.601 nM [1] | TR-FRET signal at compound concentration 2001.6 nM [1] | EC50 [1, 4] [nM] | EC50 [1, 5] [nM] | EC50 [1, 6] [nM] | DC50 [2] [nM] | SMILES | EC50 [3] [nM] | Toxicity rescue [3] [%] |
| --- | --- | --- | --- | --- | --- | --- | --- | --- | --- | --- | --- | --- | --- | --- | --- | --- | --- |
| 0.2822 and 0.2969 and 0.203 and 0.2011 | 0.3572 and 0.3626 and 0.2614 and 0.2567 | 0.4873 and 0.5297 and 0.3719 and 0.3575 | 0.7272 and 0.8095 and 0.5738 and 0.5707 | 1.129 and 1.28 and 0.9406 and 0.8919 | 1.72 and 1.9375 and 1.384 and 1.358 | 2.307 and 2.567 and 2.074 and 2.11 | 2.789 and 3.0284 and 2.71 and 2.759 | 3 and 3.3475 and 2.848 and 3.078 | 3.126 and 3.521 and 3.221 and 3.228 | 3.1032 and 3.41 and 3.238 and 3.193 | 36 ± 2 | 35.6 | 35.6 | 62 | CC[C@H](CO)Nc1nc(NCc2ccc(-c3ccncc3)cc2)c2ncn(C(C)C)c2n1 [DS44] | 300 | 857 |
| 0.2618 and 0.2852 | 0.3231 and 0.3368 | 0.3927 and 0.4029 | 0.6005 and 0.5751 | 0.9407 and 0.892 | 1.641 and 1.433 | 2.534 and 2.304 | 3.191 and 3.0985 | 3.469 and 3.534 | 3.64 and 3.842 | 3.5487 and 3.801 | 45 ± 2 | 45.1 | 45.1 | 36 | CC[C@H](CO)Nc1nc(NCc2ccc(-c3cccnc3)cc2)c2ncn(C(C)C)c2n1 [DS45] | 242 | 1302 |
| 0.2749 and 0.2901 | 0.3467 and 0.3488 | 0.4769 and 0.4631 | 0.7379 and 0.6676 | 1.149 and 0.9938 | 1.778 and 1.5795 | 2.574 and 2.417 | 3.287 and 3.206 | 3.511 and 3.701 | 3.896 and 4.02 | 3.877 and 4.06 | 46 ± 2 | 46 | 46 | 366 | CC(C)n1cnc2c(NCc3ccc(-c4ccccn4)cc3)nc(NCc3c(Cl)cncc3Cl)nc21 [DS48] | 907 | 313 |
